{"source": "patent US20230135635A1", "about": "“INHIBITORS OF ULK1/2 AND METHODS OF USING SAME” (SALK INSTITUTE FOR BIOLOGICAL STUDIES, priority 2020, published 2023)", "data": [{"biological_target": "T1, recombinant human ULK1 protein (1-649) (Homo sapiens, UniProt O75385)", "T1 construct": "recombinant human ULK1 protein (1-649, SignalChem #U01-11G); purchased SignalChem U01-11G", "T1 sequence (O75385 1-649)": "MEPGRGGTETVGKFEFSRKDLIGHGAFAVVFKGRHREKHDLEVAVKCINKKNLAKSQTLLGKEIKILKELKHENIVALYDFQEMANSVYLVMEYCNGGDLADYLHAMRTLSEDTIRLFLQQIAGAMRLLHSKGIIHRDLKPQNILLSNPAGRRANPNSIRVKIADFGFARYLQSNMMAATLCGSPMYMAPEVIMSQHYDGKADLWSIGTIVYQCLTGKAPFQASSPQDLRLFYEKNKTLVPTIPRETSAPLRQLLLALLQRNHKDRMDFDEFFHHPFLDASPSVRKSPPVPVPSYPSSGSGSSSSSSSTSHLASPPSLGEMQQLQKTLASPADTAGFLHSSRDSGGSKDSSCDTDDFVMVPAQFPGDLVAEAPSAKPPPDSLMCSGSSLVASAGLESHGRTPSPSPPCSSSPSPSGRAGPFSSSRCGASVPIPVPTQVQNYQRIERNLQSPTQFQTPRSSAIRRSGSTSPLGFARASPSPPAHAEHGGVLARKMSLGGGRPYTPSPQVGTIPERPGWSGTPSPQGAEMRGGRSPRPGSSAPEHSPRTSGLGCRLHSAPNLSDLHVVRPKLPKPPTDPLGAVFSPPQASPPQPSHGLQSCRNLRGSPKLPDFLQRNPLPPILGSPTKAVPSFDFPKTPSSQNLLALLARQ", "experiment": "ULK1 inhibition assay (ADP Glo)", "assay_type": "biochemical", "details": "Table 1; 25 uM ATP, MBP substrate, one hour", "description": "Illustrative compounds of Formula I and related analogs are shown in Table 1 (along with their respective IC50 values for ULK1 inhibition assays). For ADP Glo assay, IC50s are represented nM, with A representing IC50<1 nM, B representing 10 nM>IC50>1 nM, and C representing IC50>10 nM. NT indicates the compound was not tested. ULK1 inhibition assays were performed in a 5 uL reaction volume containing 2 ug/mL recombinant human ULK1 protein (1-649, SignalChem #U01-11G) and 80 ug/mL myelin basic protein (MBP, Sigma-Aldrich #M1891) in the presence of 25 uM ATP (Sigma-Aldrich A7699). ULK 1 inhibition was assessed after one hour. Compounds were tested in triplicate in a 16-dose IC50 mode with 3-fold serial dilution and a starting dose of 30 uM. Staurosporine, a non-selective protein kinase inhibitor, was used in the assay as a positive control.\nAccording to another embodiment, the present disclosure provides methods of producing the above-defined compounds. The compounds may be synthesized using any suitable techniques. Advantageously, these compounds are conveniently synthesized from readily available starting materials. Synthetic chemistry transformations and methodologies useful in synthesizing the compounds described herein are known in the art and include, for example, those described in R. Larock, Comprehensive Organic Transformations (1989); T. W. Greene and P. G. M. Wuts, Protective Groups in Organic Synthesis, 2d. Ed. (1991); L. Fieser and M. Fieser, Fieser and Fieser's Reagents for Organic Synthesis (1994); and L. Paquette, ed., Encyclopedia of Reagents for Organic Synthesis (1995).). In general, synthesis and measurements of ULK1 inhibitory activity of the compounds described herein was performed using method analogous to those previously described in PCT International Application No. PCT/US2015/046777 which is hereby incorporated by reference in its entirety.", "units": {"IC50": "nM"}, "values": [{"smiles": "Cn1cc(CN2CCc3cc(Nc4ncc(C(F)(F)F)c(NC5CC5)n4)ccc3C2)cn1", "note": "[Compound A62]", "IC50": "< 1"}, {"smiles": "Cn1nccc1CN1CCc2cc(Nc3ncc(C(F)(F)F)c(NC4CC4)n3)ccc2C1", "note": "[Compound A63]", "IC50": "< 1"}, {"smiles": "CN1CCc2cc(Nc3ncc(C(N)=O)c(NC4CC4)n3)ccc2C1", "note": "[Compound A64]", "IC50": "< 1"}, {"smiles": "CN1CCc2cc(Nc3ncc(Br)c(NC4CC4)n3)ccc2C1", "note": "[Compound A65]", "IC50": "< 1"}, {"smiles": "O=C(CCO)N1CCc2cc(Nc3ncc(C(F)(F)F)c(NC4CC4)n3)ccc2C1", "note": "[Compound A68]", "IC50": "< 1"}, {"smiles": "CC(=O)CN1CCc2cc(Nc3ncc(C(F)(F)F)c(NC4CC4)n3)ccc2C1", "note": "[Compound A69]", "IC50": "< 1"}, {"smiles": "CC(O)CN1CCc2cc(Nc3ncc(C(F)(F)F)c(NC4CC4)n3)ccc2C1", "note": "(stereo not drawn) [Compound A70]", "IC50": "< 1"}, {"smiles": "CN(C)c1ccc(CN2CCc3cc(Nc4ncc(C(F)(F)F)c(NC5CC5)n4)ccc3C2)cc1", "note": "[Compound A71]", "IC50": "< 1"}, {"smiles": "CN1CCc2cc(Nc3nccc(NC4CC4)n3)ccc2C1", "note": "[Compound A72]", "IC50": "> 10"}, {"smiles": "CN1CCC(N2CCc3cc(Nc4ncc(C(F)(F)F)c(NC5CC5)n4)ccc3C2)CC1", "note": "[Compound A73]", "IC50": "< 1"}, {"smiles": "CN(C)C(=O)CN1CCc2cc(Nc3ncc(C(F)(F)F)c(NC4CC4)n3)ccc2C1", "note": "[Compound A74]", "IC50": "< 1"}, {"smiles": "FC(F)(F)c1cnc(Nc2ccc3c(c2)CCN(Cc2ccncn2)C3)nc1NC1CC1", "note": "[Compound A75]", "IC50": "< 1"}, {"smiles": "NS(=O)(=O)N1CCc2ccc(Nc3ncc(C(F)(F)F)c(NC4CC4)n3)cc2C1", "note": "[Compound A76]", "IC50": "1 to 10"}, {"smiles": "Oc1ccc(CN2CCc3cc(Nc4ncc(C(F)(F)F)c(NC5CC5)n4)ccc3C2)cc1", "note": "[Compound A77]", "IC50": "< 1"}, {"smiles": "FC(F)(F)c1cnc(Nc2ccc3c(c2)CN(CCS)CC3)nc1NC1CC1", "note": "[Compound A78]", "IC50": "< 1"}, {"smiles": "FC(F)(F)c1cnc(Nc2ccc3c(c2)CN(CC2OCCO2)CC3)nc1NC1CC1", "note": "[Compound A79]", "IC50": "1 to 10"}, {"smiles": "NOCC(=O)N1CCc2cc(Nc3ncc(C(F)(F)F)c(NC4CC4)n3)ccc2C1", "note": "[Compound A80]", "IC50": "1 to 10"}, {"smiles": "CSCCN1CCc2ccc(Nc3ncc(C(F)(F)F)c(NC4CC4)n3)cc2C1", "note": "[Compound A81]", "IC50": "< 1"}, {"smiles": "FC(F)(F)c1cnc(Nc2ccc3c(c2)CN(Cc2ccncc2)CC3)nc1NC1CC1", "note": "[Compound A82]", "IC50": "< 1"}, {"smiles": "NCC(=O)N1CCc2ccc(Nc3ncc(C(F)(F)F)c(NC4CC4)n3)cc2C1", "note": "[Compound A83]", "IC50": "1 to 10"}, {"smiles": "O=C(O)c1cnc(Nc2ccc3c(c2)CCNC3)nc1NC1CC1", "note": "[Compound A85]", "IC50": "> 10"}, {"smiles": "COCCN1CCc2ccc(Nc3ncc(C(F)(F)F)c(NC4CC4)n3)cc2C1", "note": "[Compound A86]", "IC50": "< 1"}, {"smiles": "COC(=O)CC(=O)N1CCc2ccc(Nc3ncc(C(F)(F)F)c(NC4CC4)n3)cc2C1", "note": "[Compound A87]", "IC50": "1 to 10"}, {"smiles": "O=C(O)CCN1CCc2ccc(Nc3ncc(C(F)(F)F)c(NC4CC4)n3)cc2C1", "note": "[Compound A88]", "IC50": "1 to 10"}, {"smiles": "FC(F)(F)c1cnc(Nc2ccc3c(c2)CN(Cc2ccco2)CC3)nc1NC1CC1", "note": "[Compound A89]", "IC50": "1 to 10"}, {"smiles": "O=C(C1CCN1)N1CCc2cc(Nc3ncc(C(F)(F)F)c(NC4CC4)n3)ccc2C1", "note": "(stereo not drawn) [Compound A90]", "IC50": "1 to 10"}, {"smiles": "CS(=O)(=O)CCN1CCc2cc(Nc3ncc(C(F)(F)F)c(NC4CC4)n3)ccc2C1", "note": "[Compound A91]", "IC50": "1 to 10"}, {"smiles": "FC(F)(F)c1cnc(Nc2ccc3c(c2)CCN(Cc2ccoc2)C3)nc1NC1CC1", "note": "[Compound A92]", "IC50": "1 to 10"}, {"smiles": "FC(F)(F)c1cnc(Nc2ccc3c(c2)CCN(Cc2ccc[nH]2)C3)nc1NC1CC1", "note": "[Compound A93]", "IC50": "1 to 10"}, {"smiles": "FC(F)(F)c1cnc(Nc2ccc3c(c2)CN(Cc2cc[nH]c2)CC3)nc1NC1CC1", "note": "[Compound A94]", "IC50": "1 to 10"}, {"smiles": "FC(F)(F)c1cnc(Nc2ccc3c(c2)CN(Cc2ccccc2)CC3)nc1NC1CC1", "note": "[Compound A95]", "IC50": "> 10"}, {"smiles": "N[C@@H](CO)C(=O)N1CCc2ccc(Nc3ncc(C(F)(F)F)c(NC4CC4)n3)cc2C1", "note": "[Compound A96]", "IC50": "> 10"}, {"smiles": "FC(F)(F)c1cnc(Nc2ccc3c(c2)CN(CCN2CCOCC2)CC3)nc1NC1CC1", "note": "[Compound A97]", "IC50": "1 to 10"}, {"smiles": "CC(=O)N1CCc2ccc(Nc3ncc(C(F)(F)F)c(NC4CC4)n3)cc2C1", "note": "[Compound A98]", "IC50": "1 to 10"}, {"smiles": "CN1CCN(C(=O)N2CCc3ccc(Nc4ncc(C(F)(F)F)c(NC5CC5)n4)cc3C2)CC1", "note": "[Compound A99]", "IC50": "1 to 10"}, {"smiles": "O=C(CN1CCc2ccc(Nc3ncc(C(F)(F)F)c(NC4CC4)n3)cc2C1)N1CCOCC1", "note": "[Compound A100]", "IC50": "< 1"}, {"smiles": "FC(F)(F)c1cnc(Nc2ccc3c(c2)CN(Cc2ccoc2)CC3)nc1NC1CC1", "note": "[Compound A101]", "IC50": "< 1"}, {"smiles": "FC(F)(F)c1cnc(Nc2ccc3c(c2)CN(C2COC2)CC3)nc1NC1CC1", "note": "[Compound A102]", "IC50": "1 to 10"}, {"smiles": "NCCN1CCc2ccc(Nc3ncc(C(F)(F)F)c(NC4CC4)n3)cc2C1", "note": "[Compound A103]", "IC50": "1 to 10"}, {"smiles": "CS(=O)(=O)N1CCc2ccc(Nc3ncc(C(F)(F)F)c(NC4CC4)n3)cc2C1", "note": "[Compound A104]", "IC50": "1 to 10"}, {"smiles": "FC(F)(F)c1cnc(Nc2ccc3c(c2)CN(Cc2c[nH]cn2)CC3)nc1NC1CC1", "note": "[Compound A105]", "IC50": "1 to 10"}, {"smiles": "OCCN1CCc2ccc(Nc3ncc(C(F)(F)F)c(NC4CC4)n3)cc2C1", "note": "[Compound A106]", "IC50": "1 to 10"}, {"smiles": "FC(F)(F)c1cnc(Nc2ccc3c(c2)CN(CC2CCNC2)CC3)nc1NC1CC1", "note": "(stereo not drawn) [Compound A107]", "IC50": "> 10"}, {"smiles": "FC(F)(F)c1cnc(Nc2ccc3c(c2)CN(Cc2cncnc2)CC3)nc1NC1CC1", "note": "[Compound A108]", "IC50": "< 1"}, {"smiles": "FC(F)(F)c1cnc(Nc2ccc3c(c2)CN(Cc2ccncn2)CC3)nc1NC1CC1", "note": "[Compound A109]", "IC50": "< 1"}, {"smiles": "FC(F)(F)c1cnc(Nc2ccc3c(c2)CN(C2CNC2)CC3)nc1NC1CC1", "note": "[Compound A110]", "IC50": "< 1"}, {"smiles": "Cn1cnc(CN2CCc3ccc(Nc4ncc(C(F)(F)F)c(NC5CC5)n4)cc3C2)c1", "note": "[Compound A111]", "IC50": "1 to 10"}, {"smiles": "Nc1ccc(CN2CCc3cc(Nc4ncc(C(F)(F)F)c(NC5CC5)n4)ccc3C2)cc1", "note": "[Compound A112]", "IC50": "> 10"}, {"smiles": "COc1ccc(CN2CCc3cc(Nc4ncc(C(F)(F)F)c(NC5CC5)n4)ccc3C2)cc1", "note": "[Compound A113]", "IC50": "< 1"}, {"smiles": "CN1CCC(N2CCc3cc(Nc4ncc(C(F)(F)F)c(NC5CC5)n4)ccc3C2)C1", "note": "(stereo not drawn) [Compound A114]", "IC50": "< 1"}, {"smiles": "O=C(CN1CCOCC1)N1CCc2cc(Nc3ncc(C(F)(F)F)c(NC4CC4)n3)ccc2C1", "note": "[Compound A115]", "IC50": "1 to 10"}, {"smiles": "O=S(=O)(C1CC1)N1CCc2cc(Nc3ncc(C(F)(F)F)c(NC4CC4)n3)ccc2C1", "note": "[Compound A116]", "IC50": "1 to 10"}, {"smiles": "CNC(=O)c1ccccc1Oc1nc(Nc2ccc3c(c2)CCN(CCOC)C3)ncc1C(F)(F)F", "note": "[Compound A121, 2-((2-((2-(2-Methoxyethyl)-1,2,3,4-tetrahydroisoquinolin-6-yl)amino)-5-(trifluoromethyl)pyrimidin-4-yl)oxy)-N-methylbenzamide]", "IC50": "> 10"}, {"smiles": "COCCN1CCc2cc(Nc3ncc(C(F)(F)F)c(N4CCc5ccccc54)n3)ccc2C1", "note": "[Compound A123, N-(4-(Indolin-1-yl)-5-(trifluoromethyl)pyrimidin-2-yl)-2-(2-methoxyethyl)-1,2,3,4-tetra-hydroisoquinolin-6-amine]", "IC50": "> 10"}, {"smiles": "CNC(=O)c1ccccc1Oc1nc(Nc2ccc3c(c2)CCN(CCOC)C3)ncc1Cl", "note": "[Compound A124, 2-((5-chloro-2-((2-(2-methoxyethyl)-1,2,3,4-tetrahydroisoquinolin-6-yl)amino)pyrimidin-4-yl)oxy)-N-methylbenzamide]", "IC50": "> 10"}, {"smiles": "CNC(=O)c1ccccc1Oc1nc(Nc2ccc3c(c2)CCN(CCOC)C3)ncc1Br", "note": "[Compound A125, 2-((5-Bromo-2-((2-(2-methoxyethyl)-1,2,3,4-tetrahydroisoquinolin-6-yl)amino)pyrimidin-4-yl)oxy)-N-methylbenzamide]", "IC50": "> 10"}, {"smiles": "CNC(=O)c1ccccc1Nc1nc(Nc2ccc3c(c2)CCNC3)ncc1Br", "note": "[Compound A126, 2-[5-Bromo-2-(1,2,3,4-tetrahydro-isoquinolin-6-ylamino)-pyrimidin-4-ylamino]-N-methyl-benzamide]", "IC50": "> 10"}]}]}
